These are literature values, as cited in US9266789B2, “Liquid dicyandiamide and/or alkyl thiophosphoric triamide compositions and their use in agricultural applications” (RHODIA OPERATIONS, priority 2012, dated 2016).

For the compound `N#CNC(=N)N` [Dicyandiamide, 2-cyanoguanidine], the solubility in water result is “about 41 g/l”.
